Assay results: patent publication US5932618A, “Anti-viral agents and methods relating to the use thereof” (Signal Pharmaceuticals, Inc., priority 1996, dated 1999)

Tests used:
U373 MG cells = type: cell-based, human; details: PAA 200-400 μg/ml, MTS cytotoxicity assay, data not shown
[1] = tested on: HCMV viral DNA replication; assay: Viral DNA replication determined by dot blot analysis in stable clones; type: cell-based, HCMV (Towne strain); details: in presence of PAA (200-400 μg/ml), three different stable clones, data not shown
Method: The response of the integrated reporter plasmids to HCMV infection was also examined in the presence and absence of the well characterized viral DNA inhibitor phosphonoacetic acid (PAA, Sigma, St. Louis, Mo., 99.7 purity). The results are presented in FIG. 7 (P-luc), FIG. 8 (pol-luc) and FIG. 9 (pp28-luc). Cells were seeded into a 96 well plate in G418 selection media. The following day, cells were treated in the absence (lanes 1 and 4, panels B and C) or presence of PAA at 200 μg/mL (lanes 2 and 5, panels B and C) and 400 μg/mL (lanes 3 and 6, panels B and C). Cells were then superinfected with HCMV at 10 pfu/cell. Forty-eight hours post-infection, cells were harvested and isolated for either mRNA preparation, protein lysates or the luciferase assay. Luciferase activity measured as described above is shown in panels A of FIGS. 7-9. Northern analyses were performed on mRNA using probes for luciferase, MIEP-, pol- or pp28-specific mRNA and beta-actin mRNA to quantitate the amount of mRNA in each lane (panels B). Protein lysates were used for western blot analysis using antibody specific against luciferase (panels C). […] Viral DNA replication in presence of PAA was inhibited by nearly 90 percent as determined by dot blot analysis in three different stable clones (data not shown). […]

[2] = tested on: MIEP viral immediate early promoter (MIEP-luc cells); assay: Luciferase reporter assay in MIEP-luc cells 48 hours after HCMV infection; type: cell-based; details: 48 hours after infection with 3 pfu/cell HCMV, increasing amounts of compound in DMSO
Method: The MIEP promoter sequence, from position -1145 to +122, was amplified by PCR using plasmid pSE as a template. The primers are: 5'-[…]-3' (sense primer), and 5'[…]-3' (antisense primer). These oligo primers introduced a KpnI restriction site at the 5' and 3' end of MIEP promoter fragment. The KpnI digested PCR fragment was inserted into KpnI digested pGL2-basic luciferase reporter plasmid (Promega, Madison, Wis.). The promoter direction was determined and PCR fidelity of the promoter sequence was confirmed by sequencing.
(§1) B. Establishment of Stable Cell Lines
(§2) The HCMV permissive human glioblastoma cell line U373 MG was transfected with the constructs described above. […]
(§3) Cells were infected with HCMV (Towne strain, obtained from American Type Culture Collection, Rockville, Md.) at 5-10 pfu/cell. […] Plates were read immediately in a Packard TopCount™ (Packard, Hartford, Conn.). Clones showing high luciferase inducibility were further analyzed by PCR to ascertain the integrity of the reporter transcriptional unit integrated into the genomic DNA. […]
(§4) Cells are maintained in DMEM (Mediatech, Herndon, Va.) supplemented with 10% fetal bovine serum (Gemini Bioproducts, Inc., Calabasas, Calif.), 1% antimycotic/antibiotic (GIBCO, Baltimore, Md.) and 0.6 μg/mL G148 (GIBCO, Baltimore, Md.). […] Luciferase activity (luminescence) in each well is then measured using a Packard Topcount™. […]

[3] = tested on: β-actin cellular promoter (β-actin-luc cells); assay: Luciferase reporter assay in β-actin-luc cells 48 hours after HCMV infection; type: cell-based; details: 48 hours after infection with 3 pfu/cell HCMV, increasing amounts of compound in DMSO
Method: This Example illustrates the use of the cell lines of Example 1 for identifying inhibitors of viral gene expression.
Cells are maintained in DMEM (Mediatech, Herndon, Va.) supplemented with 10% fetal bovine serum (Gemini Bioproducts, Inc., Calabasas, Calif.), 1% antimycotic/antibiotic (GIBCO, Baltimore, Md.) and 0.6 μg/mL G148 (GIBCO, Baltimore, Md.). Cells are seeded at 3×10^4 cells per well in flat-bottom, tissue culture treated 96-well plates (Corning, Corning, N.Y.) and incubated for about 18 hours in a 37° C. humidified environment. Appropriately diluted candidate modulators are then added directly to the media on cells to a final concentration of 10 μg/mL, and the plates incubated for 30 minutes at 37° C. HCMV (Towne strain, ATCC) is then added at 3 pfu/cell. Forty-eight hours post-infection, the cells are washed once with PBS (without Ca^++ and Mg^++) and lysed in the 96-well plate. An aliquot of the cell lysate is then transferred to a black 96-well plate (Packard, Hartford, Conn.) and luciferase assay reagent (Promega, Madison, Wis.) is added to the plate. Luciferase activity (luminescence) in each well is then measured using a Packard Topcount™. […]
This Example illustrates anti-viral activity of representative compounds of this invention as determined in accordance with Examples 1-4 above. […]

[4] = tested on: HCMV pol promoter (pol-luc cells); assay: Luciferase reporter assay in pol-luc cells 48 hours after HCMV infection; type: cell-based; details: 48 hours after infection with 3 pfu/cell HCMV, increasing amounts of compound in DMSO
Method: The Pol promoter sequence, from position -425 to +15, was amplified by PCR using cosmid pCM1058 (Peter Ghazal) as template. The primers are: 5'-[…]-3' (sense primer), and 5'-[…]-3' (antisense primer). These oligo primers introduced a HindIII restriction site at the 5' and 3' end of Pol promoter fragment. The HindIII digested PCR fragment was inserted into HindIII digested pGL2-basic luciferase reporter plasmid (Promega, Madison, Wis.). The promoter direction was determined and PCR fidelity of the promoter sequence was confirmed by sequencing.
as §1, §2, §3, §4

[5] = tested on: HCMV pp28 promoter (pp28-luc cells); assay: Luciferase reporter assay in pp28-luc cells 48 hours after HCMV infection; type: cell-based; details: 48 hours after infection with 3 pfu/cell HCMV, increasing amounts of compound in DMSO
Excerpt: The pp28 promoter sequence, from position -609 to +106, was amplified by PCR using cosmid pCM1 (Peter Ghazal, Scripps Research Institute) as a template. The oligonucleotide primer sequences are:
These oligonucleotides primers introduced a KpnI restriction site at the 5'-end and a HindIII site at the 3'-end of the pp28 promoter fragment. Unique sites, KpnI and HindIII allowed directional cloning into the pGL2-basic luciferase reporter plasmid (Promega, Madison, Wis.), resulting in the pp28-luc promoter construct shown in FIG. 2. The PCR fidelity of the pp28 promoter sequence was confirmed by sequencing.
B. Establishment of Stable Cell Lines […]
as §3, §4

SMILES | toxicity to U373 MG cells (U373 MG cells) | inhibition of viral DNA replication [1] [%] | inhibition of reporter gene expressed from the MIEP viral immediate early promoter [2] | inhibition of reporter gene expressed from the β-actin cellular promoter [3] | inhibition of luciferase reporter expressed from the HCMV pol promoter [4] | inhibition of luciferase reporter expressed from the HCMV pp28 promoter [5]
O=C(O)CP(=O)(O)O [PAA, phosphonoacetic acid] | not toxic | ~90 |  |  |  | 
O=C(Nc1cccc([N+](=O)[O-])c1)c1cc(Cl)c2ccccc2c1O [compound (IV)] |  |  | no inhibition | no inhibition | specific inhibition | specific inhibition
COc1cc([N+](=O)[O-])ccc1NC(=O)c1cc(Cl)c2ccccc2c1O [compound (V)] |  |  | no inhibition | no inhibition | specific inhibition | specific inhibition
